Source: patent US20120040930A1, “TETRACYCLIC TERPENE SERIES COMPOUNDS, METHODS FOR PREPARING SAME, USES THEREOF AS MEDICINES AND PHARMACEUTICAL COMPOUNDS CONTAINING SAME” (priority 2005, published 2012)
“And” between values parts separate entries of the source, which are not always exact repeats. Equal entries are not always repeated. Where two headings read alike, the source gives them in different places.

Assays:
[1] = target: T1, acetylcholinesterase (AChE) isolated from Electrophorus electricus (Electrophorus electricus, UniProt O42275); assay: biochemical
T1 construct: AChE isolated from Electrophorus electricus; from tissue

[2] = target: T2, human serum butyrylcholinesterase (BChE) (Homo sapiens, UniProt P06276); assay: biochemical
T2 construct: BChE isolated from human serum; from tissue; host or cells: human serum

[3] = AChE isolated from Electrophorus electricus, read-out: AChE IC50
[4] = human serum BChE, read-out: BChE

T1 sequence (O42275 24-633): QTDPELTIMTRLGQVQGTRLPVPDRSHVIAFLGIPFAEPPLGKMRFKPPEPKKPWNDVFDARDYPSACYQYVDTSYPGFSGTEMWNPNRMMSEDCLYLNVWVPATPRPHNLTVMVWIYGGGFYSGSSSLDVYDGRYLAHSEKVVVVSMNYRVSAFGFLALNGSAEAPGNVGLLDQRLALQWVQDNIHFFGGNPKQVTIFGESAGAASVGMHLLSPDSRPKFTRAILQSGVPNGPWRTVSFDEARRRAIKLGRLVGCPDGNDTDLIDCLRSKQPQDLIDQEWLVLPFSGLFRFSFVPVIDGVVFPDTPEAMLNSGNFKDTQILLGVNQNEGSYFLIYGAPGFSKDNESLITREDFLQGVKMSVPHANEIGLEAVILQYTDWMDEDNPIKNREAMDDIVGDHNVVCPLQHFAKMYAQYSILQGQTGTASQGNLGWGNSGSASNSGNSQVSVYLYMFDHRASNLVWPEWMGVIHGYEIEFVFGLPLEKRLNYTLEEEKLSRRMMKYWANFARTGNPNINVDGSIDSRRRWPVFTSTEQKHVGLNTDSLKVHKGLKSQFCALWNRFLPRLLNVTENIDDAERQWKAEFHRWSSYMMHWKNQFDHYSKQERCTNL
T2 sequence (P06276 29-602): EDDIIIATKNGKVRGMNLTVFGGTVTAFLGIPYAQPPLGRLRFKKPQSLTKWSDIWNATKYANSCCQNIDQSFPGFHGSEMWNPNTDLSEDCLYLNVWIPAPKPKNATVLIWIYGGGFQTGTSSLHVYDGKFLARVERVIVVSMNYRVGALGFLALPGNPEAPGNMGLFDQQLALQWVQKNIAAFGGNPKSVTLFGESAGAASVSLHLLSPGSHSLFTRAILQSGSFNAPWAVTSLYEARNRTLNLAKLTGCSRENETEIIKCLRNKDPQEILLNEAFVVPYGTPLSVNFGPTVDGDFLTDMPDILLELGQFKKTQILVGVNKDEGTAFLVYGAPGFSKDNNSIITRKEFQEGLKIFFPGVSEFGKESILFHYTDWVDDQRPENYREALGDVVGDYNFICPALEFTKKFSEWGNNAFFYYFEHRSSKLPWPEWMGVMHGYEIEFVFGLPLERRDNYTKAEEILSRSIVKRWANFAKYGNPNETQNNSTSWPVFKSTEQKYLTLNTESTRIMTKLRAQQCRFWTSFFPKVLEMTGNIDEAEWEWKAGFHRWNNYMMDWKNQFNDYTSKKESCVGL

SMILES	IC50 [1, 3]	IC50 [2, 4] [nM]	IC50 ([1]; AChE IC50) [nM]	IC50 [2] [nM]
CC(=O)O[C@@H]1C[C@@]2(C)[C@@H]3CC[C@@H]4C5(CC[C@H](NC(=O)C(C)C)[C@@]4(C)CO)C[C@@]35C(=O)C[C@]2(C)[C@H]1[C@H](C)N(C)C (stereo partly drawn) [Compound 13, (20S)-16α-acetyl-3-isobutyrylamino-9,19-cyclo-4α-hydroxymethyl-4,14α-dimethyl-20-dimethylamino-5α,9-pregnan-11-one]	> 10000 nM	> 1000		
C[C@@H]([C@H]1[C@H](O)C[C@@]2(C)[C@@H]3CC[C@@H]4C(=CC[C@H](NC(=O)Cc5ccccc5)[C@@]4(C)CO)C[C@H]3C(=O)C[C@]12C)N(C)C [Compound 7g, (20S)-10(9->1)abeo-4α-hydroxymethyl-4,14α-dimethyl-20-dimethylamino-3 (phenylacetylamino)-5α,9-pregn-1(10)-en-16α-ol-11-one]	> 1000 nM	> 10000		
CC(C)C(=O)NC1CC[C@]23CC24C(=O)C[C@]2(C)[C@@H]([C@H](C)N(C)C)[C@H](O)C[C@@]2(C)[C@@H]4CC[C@H]3[C@]1(C)CO (stereo in doubt) [Compound 2, (20S)-3-isobutyrylamino-9,19-cyclo-4α-hydroxymethyl-4,14α-dimethyl-20-dimethylamino-5α,9-pregnan-16α-ol-11-one]		> 10000	> 10000	
C[C@@H]([C@H]1[C@H](O)C[C@@]2(C)[C@@H]3CC[C@H]4[C@](C)(CO)[C@@H](NC(=O)c5ccccc5)CC[C@@]45CC35C(=O)C[C@]12C)N(C)C (stereo partly drawn) [Compound 6b, (20S)-3-benzoylamino-9,19-cyclo-4α-hydroxymethyl-4,14α-dimethyl-20-dimethylamino-5α,9-pregnan-16α-ol-11-one]	> 10000 nM	2210		
CCC(C)C1=N[C@H]2CC=C3C[C@H]4C(=O)C[C@]5(C)[C@@H]([C@H](C)N(C)C)[C@H](O)C[C@@]5(C)[C@@H]4CC[C@H]3[C@]2(C)CO1 (mixture of isomers) [Compound 8h, (20S)-10(9->1)abeo-4,14α-dimethyl-20-dimethylamino(2′-(1-methylpropyl)-4′,4′ dihydro[3′,1′]oxazin)-5α,9-pregn-1(10)-en-16α-ol-11-one]	27 nM	1540		
CC(=O)O[C@@H]1C[C@@]2(C)[C@@H]3CC[C@@H]4C5(CC[C@H](NC(=O)C(C)C)[C@@]4(C)C=O)C[C@@]35C(=O)C[C@]2(C)[C@H]1[C@H](C)N(C)C (stereo partly drawn) [Compound 14, (20S)-16α-acetyl-3-isobutyrylamino-9,19-cyclo-4α-formyl-4,14α-dimethyl-20-dimethylamino-5α,9-pregnan-11-one]	> 1000 nM	> 1000		
CCC(C)C(=O)N[C@H]1CCC23C[C@]24C(=O)C[C@]2(C)[C@@H]([C@H](C)N(C)C)[C@H](O)C[C@@]2(C)[C@@H]4CC[C@H]3[C@]1(C)CO (stereo partly drawn) [Compound 6h, (20S)-9,19-cyclo-4α-hydroxymethyl-4,14α-dimethyl-20-dimethylamino-3 (2-methylbutyrylamino)-5α,9-pregnan-16α-ol-11-one]	> 100000 nM	121		
CC(C)C(=O)N[C@H]1CCC23C[C@]24C(=O)C[C@]2(C)[C@@H]([C@H](C)N(C)C)[C@H](OC(=O)C(C)(C)C)C[C@@]2(C)[C@@H]4CC[C@H]3[C@]1(C)/C=N/Cc1ccccc1 (stereo partly drawn) [Compound 19, (20S)-16α-pivalyl-3-isobutyrylamino-9,19-cyclo-4α-benzyliminomethyl-4,14α-dimethyl-20-dimethylamino-5α,9-pregnan-11-one]	> 1000 nM	1280		
C[C@@H]([C@H]1[C@H](O)C[C@@]2(C)[C@@H]3CC[C@@H]4C5(CC[C@H](NC(=O)C6CCCCC6)[C@@]4(C)CO)C[C@@]35C(=O)C[C@]12C)N(C)C (stereo partly drawn) [Compound 6d, (20S)-3-(cyclohexanecarboxylamino)-9,19-cyclo-4α-hydroxymethyl-4,14α-dimethyl-20-dimethylamino-5α,9-pregnan-16α-ol-11-one]	> 10000 nM	> 5000		
CC(C)C1=NC2CC[C@H]3C=C4C(=O)C[C@]5(C)[C@@H]([C@H](C)N(C)C)[C@H](O)C[C@@]5(C)[C@@H]4CC[C@H]3[C@]2(C)CO1 (stereo partly drawn) [Compound 32, (20S)-9(10->19)abeo-4,14α-dimethyl-20-dimethylamino(2′-isopropyl-4′,4′-dihydro[3′,1′]oxazin)-5α,9-pregn-1(10)-en-16α-ol-11-one]	112 nM			1440
CCC(=O)N[C@H]1CC=C2C[C@H]3C(=O)C[C@]4(C)[C@@H]([C@H](C)N(C)C)[C@H](O)C[C@@]4(C)[C@@H]3CC[C@H]2[C@]1(C)CO [Compound 7c, (20S)-10(9->1)abeo-4α-hydroxymethyl-4,14α-dimethyl-20-dimethylamino-3-propionylamino-5α,9-pregn-1(10)-en-16α-ol-11-one]	> 1000 nM	> 10000		
CC(C)C1=NC2CC=C3C[C@H]4C(=O)C[C@]5(C)[C@@H]([C@H](C)N(C)C)[C@H](O)C[C@@]5(C)[C@@H]4CC[C@H]3[C@]2(C)CO1 (stereo partly drawn) [Compound 1, (20S)-10(9->1)abeo-4,14α-dimethyl-20-dimethylamino-(2′-isopropyl-4′,4′-dihydro[3′,1′]oxazine)-5α,9-pregn-1(10)-en-16α-ol-11-one]	31 nM and 32 nM	> 1000		
CC(C)C(=O)N[C@H]1CC=C2C[C@H]3C(=O)C[C@]4(C)[C@@H]([C@H](C)N(C)C)[C@H](O)C[C@@]4(C)[C@@H]3CC[C@H]2[C@]1(C)CO [Compound 3, (20S)-10(9->1)abeo-4α-hydroxymethyl-3-isobutyrylamino-4,14α-dimethyl-20-dimethylamino-5α,9-pregn-1(10)-en-16α-ol-11-one]		7410		
CCC(C)C(=O)N[C@H]1CC=C2C[C@H]3C(=O)C[C@]4(C)[C@@H]([C@H](C)N(C)C)[C@H](O)C[C@@]4(C)[C@@H]3CC[C@H]2[C@]1(C)CO (stereo partly drawn) [Compound 7e, (20S)-10(9->1)abeo-4α-hydroxymethyl-4,14α-dimethyl-20-dimethylamino-3 (S-2-methylbutyrylamino)-5α,9-pregn-1(10)-en-16α-ol-11-one]		> 10000	105	
CC(C)[C@H]1N[C@H]2CCC34C[C@]35C(=O)C[C@]3(C)[C@@H]([C@H](C)N(C)C)[C@H](O)C[C@@]3(C)[C@@H]5CC[C@H]4[C@]2(C)CO1 (stereo partly drawn) [Compound 9, (20S)-9,19-cyclo-4,14α-dimethyl-20-dimethylamino(2′β-isopropyl-1′,2′,4′,4′-tetrahydro[3′,1′]oxazin)-5α,9-pregnan-16α-ol-11-one]	2380 nM			> 10000
CC(C)C(=O)N[C@H]1CCC23C[C@]24C(=O)C[C@]2(C)[C@@H]([C@H](C)N(C)C)[C@H](O)C[C@@]2(C)[C@@H]4CC[C@H]3[C@]1(C)COCc1ccccc1 (stereo partly shown) [Compound 27]	16800 nM	5200		
C[C@@H]([C@H]1[C@H](O)C[C@@]2(C)[C@@H]3CC[C@@H]4C(=CC[C@H](NC(=O)c5ccccc5)[C@@]4(C)CO)C[C@H]3C(=O)C[C@]12C)N(C)C [Compound 7b, (20S)-10(9->1)abeo-3-benzoylamino-4α-hydroxymethyl-4,14α-dimethyl-20-dimethylamino-5α,9-pregn-1(10)-en-16α-ol-11-one]	> 10000 nM	1880		
C[C@@H]([C@H]1[C@H](O)C[C@@]2(C)[C@@H]3CC[C@@H]4C(=CC[C@@H]5N=C(Cc6ccccc6)OC[C@]54C)C[C@H]3C(=O)C[C@]12C)N(C)C [Compound 8g, (20S)-10(9->1)abeo-4,14α-dimethyl-20-dimethylamino-(2′-(1-benzyl)-4′,4′-dihydro[3′,1′]oxazine)-5α,9-pregn-1(10)-en-16α-ol-11-one]		> 10000		
C[C@@H]([C@H]1[C@H](O)C[C@@]2(C)[C@@H]3CC[C@@H]4C5(CC[C@H](N)[C@@]4(C)CO)C[C@@]35[C@@H](O)C[C@]12C)N(C)C (stereo partly drawn) [Compound 28, (20S)-3-amino-9,19-cyclo-4α-hydroxymethyl-4,14α-dimethyl-20-dimethylamino-5α,9-pregnan-16α,11-diol-11-one]	> 1000 nM	2450		
C[C@@H]([C@H]1[C@H](O)C[C@@]2(C)[C@@H]3CC[C@@H]4C(=CC[C@H](N)[C@@]4(C)CO)C[C@H]3C(=O)C[C@]12C)N(C)C [Compound 11, (20S)-10(9->1)abeo-3-amino-4α-hydroxymethyl-4,14α-dimethyl-20-dimethylamino-5α,9-pregn-1(10)-en-16α-ol-11-one]	1500 nM	> 10000		
CCC(C)C(=O)N[C@H]1CC=C2C[C@H]3C(=O)C[C@]4(C)[C@@H]([C@H](C)N(C)C)[C@H](O)C[C@@]4(C)[C@@H]3CC[C@H]2[C@]1(C)CO (mixture of isomers) [Compound 7h, (20S)-10(9->1)abeo-4α-hydroxymethyl-4,14α-dimethyl-20-dimethylamino-3 (2-methylbutyrylamino)-5α,9-pregn-1(10)-en-16α-ol-11-one]		1930	120	
C[C@@H]([C@H]1[C@H](O)C[C@@]2(C)[C@@H]3CC[C@@H]4C(=CC[C@H](NC(=O)C5CCCCC5)[C@@]4(C)CO)C[C@H]3C(=O)C[C@]12C)N(C)C [Compound 7d, (20S)-10(9->1)abeo-3-(cyclohexanecarboxyamino)-4α-hydroxymethyl-4,14α-dimethyl-20-dimethylamino-5α,9-pregn-1(10)-en-16α-ol-11-one]	> 1000 nM	4020		
CCC(CC)C1=N[C@H]2CC=C3C[C@H]4C(=O)C[C@]5(C)[C@@H]([C@H](C)N(C)C)[C@H](O)C[C@@]5(C)[C@@H]4CC[C@H]3[C@]2(C)CO1 [Compound 8i, (20S)-10(9->1)abeo-4,14α-dimethyl-20-dimethylamino(2′-(1-ethylpropyl)-4′,4′-dihydro[3′,1′]oxazin)-5α,9-pregn-1(10)-en-16α-ol-11-one]		380		
